These are literature values, as cited in US20200197351A1, “TRIVALENT AND DIVALENT CATIONS AS ADMINISTRABLE AGENTS FOR INCREASED PROCESSIVITY AND IMPROVED FIDELITY OF REVERSE TRANSCRIPTASE IN TELOMERASE AND IN NUCLEIC ACID POLYMERASES” (priority 2018, published 2020).

The conditions of this series: detailed testing in mammals.

As for `[Sc]` [Scandium], the toxicity result is on record as “little or no toxicity”.
